Entries after “also recorded” stand apart in the source; their conditions may differ.
Biological target: T1, MmBCO2 (Mus musculus, UniProt Q99NF1)
T1 construct: All genes were full length except AtCCD7; expressed in transfected cells; host or cells: E. coli BL21(DE3) harbouring pAC-BETA
T1 sequence (Q99NF1 1-532): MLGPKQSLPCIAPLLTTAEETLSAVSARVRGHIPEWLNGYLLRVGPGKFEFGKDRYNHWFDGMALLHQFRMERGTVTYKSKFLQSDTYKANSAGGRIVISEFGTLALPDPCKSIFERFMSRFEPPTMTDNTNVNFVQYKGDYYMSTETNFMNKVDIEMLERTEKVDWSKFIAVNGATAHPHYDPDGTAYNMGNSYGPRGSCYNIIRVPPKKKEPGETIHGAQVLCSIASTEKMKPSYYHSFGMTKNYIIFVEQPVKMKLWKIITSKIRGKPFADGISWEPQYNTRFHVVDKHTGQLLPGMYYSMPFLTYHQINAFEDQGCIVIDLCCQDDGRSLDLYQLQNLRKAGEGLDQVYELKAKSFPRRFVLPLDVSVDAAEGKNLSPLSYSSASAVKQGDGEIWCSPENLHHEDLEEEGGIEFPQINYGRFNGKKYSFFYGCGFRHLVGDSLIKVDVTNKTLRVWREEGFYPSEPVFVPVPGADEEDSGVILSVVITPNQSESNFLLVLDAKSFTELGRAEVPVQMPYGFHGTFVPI
Test: In vivo enzyme assay in β-carotene-producing E. coli expressing MmBCO2
Assay type: cell-based
Conditions: 100 μM inhibitor, 16 hours; FIG. 4
From the text: In vivo enzyme assays in E. coli—The genes of interest (supplemental Table S1) were cloned into the vector pET30c (Novagen) fused directly to the initial ATG codon with no tag, or into pGEX-4T such that the gene was fused to an N-terminal GST tag. All genes were full length except AtCCD7, which had the chloroplast signal sequence removed (supplemental methods). […] Therefore, this construct was used in subsequent assays. The plasmids were transferred to the E. coli expression strain BL21(DE3), harbouring pAC-BETA (38), and therefore producing β-carotene.
For each inhibitor assay, 2.5 ml LB media with the appropriate antibiotics (25 μg ml^−1 chloramphenicol and 50 μg ml^−1 kanamycin or 100 μg ml^−1 ampicillin) and 2.5 μM IPTG, was prepared. […] The supernatant was removed and the O.D.453-O.D.550 was measured. The amount of β-carotene was calculated using a standard curve generated from a dilution series of β-carotene (Sigma) in ethanol with 0.2% Triton X-100; the absolute levels of β-carotene are shown in FIG. 8. The relative inhibition was calculated by the equation: (Ci−Cc)/(C1−Cc)×100, where Ci is the carotenoid level with inhibitor and CCD present, Cc is the level with CCD but without the inhibitor and C1 is the level in a strain where lacZ is expressed instead of the CCD, and no inhibitor is present. […]

COc1ccc(C(=O)N(O)Cc2ccccc2)cc1 [Compound F1, N-benzyl-4-methoxybenzoyl hydroxamic acid]
relative inhibition of MmBCO2 in E. coli (in words): most effective compounds at inhibiting MmBCO2; also recorded: high inhibitory activity

COc1ccc(C(=O)N(O)Cc2ccc(F)cc2)cc1 [Compound F2, N-(4-fluorobenzyl)-4-methoxybenzoyl hydroxamic acid]
relative inhibition of MmBCO2 in E. coli (in words): most effective compounds at inhibiting MmBCO2; also recorded: high inhibitory activity

Reference: US9210928B2, “Plant development control composition” (Syngenta Crop Protection, LLC, priority 2008, dated 2015)
